We go through 2 compounds from patent US20260138969A1 (Korea Research Institute of Chemical Technology, priority 2023, published 2026).

Marks after values point to notes of the source that are not given here.

In series [1] the test system is α-Syn transgenic Parkinson's disease mouse model. Kind of series: α-Syn transgenic Parkinson's disease mouse model: microglial reduction (Iba-1). Type of series: in vivo. The conditions noted are these: 9 months of age; Memantine 10 mg/kg (G3), G4 2 mg/kg, G5 10 mg/kg, G7 2 mg/kg PO QD. As to the method: The test drug was administered once daily (QD) via oral administration (PO) with a solution of 5 ml/kg for 5 months from 4 months to 9 months of age. Motor behavior tests (beam test) and neurological scores (modified Irwin test) were performed at 4 months (before administration), 7 months, and 9 months. After the final behavioral test, tissue samples were taken. Weight was measured on the same day once a week from 4 months of age until the end of the study.
At 9 months of age, the measurement period ended, the mice were anesthetized, and then the experiment was terminated by cardiac puncture according to IACUC guidelines. Mice were perfused transcardially with 0.9% saline for tissue staining, followed by 4% paraformaldehyde until the mice were fixed. The brains were isolated and immobilized by soaking in 4% paraformaldehyde at 4° C. for 24 hours, followed by 30% sucrose added to PBS containing 0.02% sodium azide and stored at 4° C. for 3 days. Brain samples embedded in OCT compounds were sectioned to a thickness of 20 μm using Leica CM1950 (Leica Microsystems, Germany). The sections were stored at 4° C. in a preservation solution until they were stained by antibodies. […]
To assess microgliosis of the cortex, Iba-1-stained brain tissue was imaged in experimental example 10.5 using an immunofluorescence microscope (Olympus, BZ21) in Olympus. Each marker was manually counted to quantify Iba1.

For another series, the system named is BV2 cells. Kind of series: Anti-inflammatory efficacy: LPS-induced TNF-α secretion (ELISA). Type of series: cell-based. The following applies: 0.1, 0.3, 1 μM pretreatment 1 hour, LPS 100 μg/ml 24 hours; FIG. 2. As to the method: BV2 cells (2×10^4 cells per well) were incubated for 24 hours in a 96-well culture plate. Subsequently, the Example compounds were added in 0.1 μM, 0.3 μM, and 1 μM, respectively, for 1 hour, followed by the addition of LPS 100 μg/ml and incubated for 24 hours. After incubation, conditioned medium (CM) was harvested and centrifuged at 2000 rpm. After separating the supernatant of the solution after centrifugation, the TNF-α secreted from the cell culture medium was measured using the corresponding ELISA kit (LABISKOMA, Seoul, Korea).

Another series has as its system HepG2 cells. Kind of series: TG synthesis inhibition in FFA-treated HepG2 cells. Type of series: cell-based, human.
Series [2] can be described thus: TG synthesis inhibition in FFA-treated HepG2 cells. Type of series: cell-based, human. The conditions noted are these: human, HepG2 cells, read-out: Cell Viability (% of HepG2 control).

For the compound `Cc1cc(F)c(C(=O)Nc2cccc(-n3nnc4c3CCC4)n2)cc1-n1cnc(C2CC2)c1` [Example 2, 5-(4-cyclopropyl-1H-imidazole-1-yl)-N-(6-(5,6-dihydrocyclopenta[d][1,2,3]triazole-1 (4H)-yl)pyridine-2-yl)-2-fluoro-4-methylbenzamide], the “number of IBA-1 positive cells in the cerebral cortex” value in series [1] is recorded as “significantly reduced”.

In general, viability refers to the share of living cells, or the viability signal relative to a control. Turning to `Cc1cc(F)c(C(=O)Nc2cccc(-n3nnc4c3CCCC4)n2)cc1-n1cnc(C2CC2)c1` [Example 3, 5-(4-cyclopropyl-1H-imidazole-1-yl)-2-fluoro-4-methyl-N-(6-(4,5,6,7-tetrahydro-1H-benzo[d][1,2,3]triazole-1-yl)pyridine-2-yl)benzamide], the “TNF-α secretion induced by LPS” value in the series with BV2 cells was “reduced TNF-α secretion at all concentrations compared to Selonsertib”. For the same compound, the “TG Level (% of HepG2 control)” value with HepG2 cells (FFA 1 mM + 0.3 μM) was 117.38 * % of HepG2 control; in the series with HepG2 cells (FFA 1 mM + 1 μM), 106.59 * % of HepG2 control. The viability at 48 h, 0.3 μM in series [2] (FFA 1 mM + 0.3 μM) worked out at 99.1%. Further, in series [2] (FFA 1 mM + 1 μM), the viability at 48 h, 1 μM worked out at 93.1%.
